Source: ChEMBL document CHEMBL3044753, “Polyamines May Modulate Both G Protein-Coupled Receptors and G Proteins” (Med Chem Res, 2004)
Activity calls are given as the source filed them. The calls are words filed in the database; no cut-off is given here.

What was measured:
Right cardiac atrium [1] = assay: Negative ionotropic activity in electrically-paced Cavia porcellus (guinea pig) right atrium measured immediately by isometric transducer analysis in presence of bupranolol; type: functional, tissue-based
Right cardiac atrium [2] = assay: Negative ionotropic activity in electrically-paced Cavia porcellus (guinea pig) right atrium assessed as effect on force measured immediately by isometric transducer analysis in presence of benzalkonium/prazosin relative to arecaidine propargyl ester; type: functional
Left cardiac atrium [3] = assay: Negative ionotropic activity in electrically-paced Cavia porcellus (guinea pig) left atrium measured immediately by isometric transducer analysis in presence of AM 630; type: functional, tissue-based
Right cardiac atrium [4] = assay: Negative […] activity in electrically-paced Cavia porcellus (guinea pig) right atrium measured immediately by isometric transducer analysis in presence of AM 251; type: functional, tissue-based
Right cardiac atrium [5] = assay: Negative ionotropic activity in electrically-paced Cavia porcellus (guinea pig) right atrium measured immediately by isometric transducer analysis in presence of dihydroergocristine; type: functional, tissue-based
Right cardiac atrium [6] = assay: Negative ionotropic activity in electrically-paced Cavia porcellus (guinea pig) right atrium measured immediately by isometric transducer analysis in presence of thioperamide; type: functional, tissue-based
Left cardiac atrium [7] = assay: Negative […] activity in electrically-paced Cavia porcellus (guinea pig) left atrium measured immediately by isometric transducer analysis in presence of thioperamide; type: functional, tissue-based
Right cardiac atrium [8] = assay: Negative […] activity in electrically-paced Cavia porcellus (guinea pig) right atrium measured immediately by isometric transducer analysis in presence of AM 630; type: functional, tissue-based

COc1ccccc1CN1CCC(C2CCN(C(=O)CCCCCCC(=O)N3CCC(C4CCN(Cc5ccccc5OC)CC4)CC3)CC2)CC1 [PIPERTRAMINE AMIDE]
Activity (Right cardiac atrium [1]): Active | Efficacy (Right cardiac atrium [2]): 81% | Activity (Left cardiac atrium [3]): Active | Activity (Right cardiac atrium [4]): Active | Activity (Right cardiac atrium [5]): Active | Activity (Right cardiac atrium [6]): Active | Activity (Left cardiac atrium [7]): Active | Activity (Right cardiac atrium [8]): Active
